{"source": "patent US11795510B2", "about": "“Identification of epigenomic reprogramming in cancer and uses thereof” (The Johns Hopkins University, priority 2016, dated 2023)", "key": {"[1]": {"system": "local-regional PDAC samples", "test": "3-D suspension tumorsphere assay, local-regional PDACs", "assay_type": "cell-based, human", "description": "3-D matrigel assays were adapted from Cheung et al. (Control of alveolar differentiation by the lineage transcription factors GATA6 and HOPX inhibits lung adenocarcinoma metastasis. Cancer Cell 23, 725-38 (2013)). Briefly, 2-D cultures were trypsinized into single cells, 4,000cells/mL were suspended and thoroughly mixed in ice-cold DMEM containing 5% matrigel (BD systems) and 2% FBS (+/−DMSO/6AN as needed), 500 ul plated in quadruplicate into 24 well ultra-low attachment plates, and incubated for at least 7 days to allow tumor growth. Well-formed tumors were then counted and representative photographs taken with an EVOS instrument. 3-D suspension tumorsphere assays were performed with 20,000 starting cells/well in ultra-low attachment 6 well plates as described, and tumors counted/photographed after at least 7 days of tumor growth."}, "[2]": {"biological_target": "T1, 6-phosphogluconate dehydrogenase (PGD) (Homo sapiens, UniProt P52209)", "T1 construct": "endogenous in cells; host or cells: low-passage rapid-autopsy PDAC cell lines (e.g. A38Lg, A38Per, A13 subclones)", "T1 sequence (P52209 1-483)": "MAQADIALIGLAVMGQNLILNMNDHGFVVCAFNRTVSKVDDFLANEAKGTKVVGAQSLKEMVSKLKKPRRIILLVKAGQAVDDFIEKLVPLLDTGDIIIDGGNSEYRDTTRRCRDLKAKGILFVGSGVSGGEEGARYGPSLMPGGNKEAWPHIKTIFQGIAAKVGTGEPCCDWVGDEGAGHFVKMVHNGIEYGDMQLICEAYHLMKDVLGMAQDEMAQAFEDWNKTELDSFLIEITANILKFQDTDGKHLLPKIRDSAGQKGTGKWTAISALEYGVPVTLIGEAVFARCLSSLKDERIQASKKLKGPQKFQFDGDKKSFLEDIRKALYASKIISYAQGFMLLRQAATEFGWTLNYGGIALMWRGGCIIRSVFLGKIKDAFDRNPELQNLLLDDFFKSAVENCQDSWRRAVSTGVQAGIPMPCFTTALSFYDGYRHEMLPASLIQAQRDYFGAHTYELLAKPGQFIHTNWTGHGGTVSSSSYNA", "test": "Steady state LC-HRMS metabolite profiling (glycolytic/PPP metabolites)", "assay_type": "cell-based", "description": "(§1) Tissue samples and cell lines were previously collected from PDAC patients by rapid autopsy, sequenced-validated, and monitored for mycoplasma as previously described. Low passage (2-17) rapid autopsy cell lines were cultured at 37° C. in DMEM with 10% fetal bovine serum (FBS, Gibco). For MTT assays, 15,000 cells/well were plated into 96 well plates in triplicate, treated 12 hours later, and assayed after 24 hr (glucose responses) or 6 days (chemotherapy) with CellTiter96 (Promega). For glucose response assays, nutrient-deplete DMEM (no glucose, glutamine, pyruvate, or serum) was used with addition of glucose as indicated. […] Cells were then washed with PBS, trypsinized, and viable cells counted with a hemocytometer. Glucose uptake and lactate secretion were measured with a YSI 7100 Bioanalyzer as described in the supplementary methods. […]\n(§2) LC-HRMS Metabolite Profiling. LC-HRMS samples were prepared and analyzed as described in Liu et al. (Development and quantitative evaluation of a high-resolution metabolomics technology. Anal Chem 86, 2175-84 (2014)). […] Additional replicates were also included and counted at the end of the experiment for normalization. […] Pellets were reconstituted into a volume normalized to protein content (15 uL of 1:1 acetonitrile:methanol and 15 uL of water was used per 1 mg protein) and analyzed by LC-QE-MS. […]"}, "[3]": {"system": "glucose incorporation into lactate and nucleotides (PPP)", "test": "13C-1,2 glucose tracing by LC-HRMS", "assay_type": "cell-based, human", "details": "10 mM 13C-1,2 glucose, 36 hours", "description": "as §1, §2"}, "[4]": {"system": "distant metastatic subclones", "test": "Organotypic tumor forming assay (3D organotypic stromal cultures)", "assay_type": "cell-based, human", "description": "Organotypic tumor forming assays were adapted from Ridky et al. (P.A. Invasive three-dimensional organotypic neoplasia from multiple normal human epithelia. Nat Med 16, 1450-5 (2010)) and Andl et al. (Epidermal growth factor receptor mediates increased cell proliferation, migration, and aggregation in esophageal keratinocytes in vitro and in vivo. J Biol Chem 278, 1824-30 (2003)). Briefly, 6 well permeable transwell plates (Costar 3414) were overlayed with 1 mL type 1 collagen containing 10×DMEM (acellular layer). Human dermal fibroblasts (ATCC) were suspended (12×10^6 cells/mL) in a mixture of ice cold 10×DMEM, 10% FBS, 52.5% collagen, and 17.5% matrigel (cellular layer), thoroughly mixed, and 2 mL/well plated over the acellular layer. The mixture was allowed to partially solidify for approximately 15 minutes at 37° C., followed by triplicate injection of 1×10^6 PDAC (suspended in 20 ul DMEM) cells into the cellular layer. Cells were incubated for 24 hours in fibroblast growth media above and below the inserts to initiate contraction of the discs. […] Discs were harvested, fixed overnight in 10% formalin, […], and stained with H&E. Tumors were photographed and measured with an Olympus BX53 microscope using cellSens Standard software."}}, "note": "“Also recorded” adds a separate entry of the source."}
{"smiles": "NC(=O)c1ccc(N)nc1", "note": "[6AN, 6-aminonicotinamide]", "values": [{"measurement": "tumor formation in 3-D suspension tumorsphere assays", "setting": "[1]", "value": "minimal effects; also recorded: did not interfere"}, {"measurement": "steady state levels of glucose and metabolites directly upstream of the PGD reaction (6PG, G1,5L)", "setting": "[2]", "value": "dramatically elevated; also recorded: greatly increased"}, {"measurement": "steady state levels of metabolites downstream of the PGD reaction", "setting": "[2]", "value": "corresponding reductions"}, {"measurement": "incorporation of labeled glucose into lactate and nucleotides (metabolites downstream of the PPP)", "setting": "[3]", "value": "reversed the previously detected high incorporation; also recorded: reduced incorporation"}, {"measurement": "tumor formation after injection into 3D organotypic stromal cultures", "setting": "[4]", "value": "selectively and strongly blocked tumor formation; also recorded: blocked"}]}
